Columns and labels:
Assay type in all cases: binding
[1] = biological target: Adrenergic β1 (Homo sapiens, UniProt P08588); details: for % Inhibition: 10 μM
[2] = tested on: Rolipram; details: 10 μM; rat
[3] = biological target: T1, Adenosine A1 (Homo sapiens, UniProt P30542); details: for % Inhibition: 10 μM
T1 sequence (P30542 1-326): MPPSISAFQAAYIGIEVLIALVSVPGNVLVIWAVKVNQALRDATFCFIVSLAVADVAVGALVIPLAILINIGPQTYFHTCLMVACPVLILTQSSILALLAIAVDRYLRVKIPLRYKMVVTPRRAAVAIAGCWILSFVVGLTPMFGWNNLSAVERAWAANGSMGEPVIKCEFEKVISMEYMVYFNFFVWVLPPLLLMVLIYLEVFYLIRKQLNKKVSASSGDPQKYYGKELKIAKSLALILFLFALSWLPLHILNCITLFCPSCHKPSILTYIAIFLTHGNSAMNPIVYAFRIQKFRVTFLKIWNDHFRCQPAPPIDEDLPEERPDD

[4] = biological target: T2, Adrenergic α1A (Rattus norvegicus, UniProt P43140); details: for % Inhibition: 10 μM
T2 sequence (P43140 1-466): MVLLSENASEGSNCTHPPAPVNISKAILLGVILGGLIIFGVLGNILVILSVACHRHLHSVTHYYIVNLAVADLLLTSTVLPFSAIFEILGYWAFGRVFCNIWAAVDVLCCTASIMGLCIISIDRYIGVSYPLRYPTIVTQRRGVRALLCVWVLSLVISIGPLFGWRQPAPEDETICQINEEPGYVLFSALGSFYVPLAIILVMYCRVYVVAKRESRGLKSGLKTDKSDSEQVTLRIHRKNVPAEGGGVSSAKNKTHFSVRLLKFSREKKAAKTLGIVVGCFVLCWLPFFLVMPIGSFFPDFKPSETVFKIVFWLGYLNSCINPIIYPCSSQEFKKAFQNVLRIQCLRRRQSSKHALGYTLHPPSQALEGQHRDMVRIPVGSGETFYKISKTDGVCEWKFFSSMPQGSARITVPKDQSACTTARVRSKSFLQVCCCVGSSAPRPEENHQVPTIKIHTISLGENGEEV

[5] = tested on: Sodium Channel, Site 2; details: 10 μM; rat
[6] = tested on: Phorbol Ester; details: 10 μM; mouse
[7] = biological target: Cannabinoid CB1 (Homo sapiens, UniProt P21554); details: for % Inhibition: 10 μM
[8] = tested on: GABAA, Muscimol, Central; details: 10 μM; rat
[9] = biological target: Adrenergic β2 (Homo sapiens, UniProt P07550); details: for % Inhibition: 10 μM
[10] = biological target: Opiate μ(OP3, MOP) (Homo sapiens, UniProt P35372); details: for % Inhibition: 10 μM
[11] = tested on: Glutamate, NMDA, Phencyclidine; details: 10 μM; rat
[12] = biological target: Dopamine D1 (Homo sapiens, UniProt P21728); details: for % Inhibition: 10 μM
[13] = biological target: Potassium Channel (KATP) (Cricetus cricetus, UniProt Q09427); details: hamster; for % Inhibition: 10 μM
[14] = biological target: T3, Adrenergic α2A (Homo sapiens, UniProt P08913); details: for % Inhibition: 10 μM
T3 sequence (P08913 1-465): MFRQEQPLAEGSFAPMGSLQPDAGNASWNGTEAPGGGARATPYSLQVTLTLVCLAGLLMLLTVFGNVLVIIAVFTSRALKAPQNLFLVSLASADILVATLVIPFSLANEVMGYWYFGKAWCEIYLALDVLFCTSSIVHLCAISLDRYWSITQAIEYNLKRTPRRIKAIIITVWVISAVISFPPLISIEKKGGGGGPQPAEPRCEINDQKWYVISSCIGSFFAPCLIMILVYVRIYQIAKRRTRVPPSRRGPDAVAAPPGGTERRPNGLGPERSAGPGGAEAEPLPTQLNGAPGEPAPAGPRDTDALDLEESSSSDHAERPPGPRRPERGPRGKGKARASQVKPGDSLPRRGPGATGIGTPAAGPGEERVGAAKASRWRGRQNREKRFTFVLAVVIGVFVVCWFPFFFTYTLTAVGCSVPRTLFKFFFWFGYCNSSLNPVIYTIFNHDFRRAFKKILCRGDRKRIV

[15] = tested on: GABAA, Flunitrazepam, Central; details: 10 μM; rat
[16] = tested on: Nicotinic Acetylcholine; details: 10 μM; human
[17] = tested on: Imidazoline I2, Central; details: 10 μM; rat
[18] = tested on: Calcium Channel L-type, Dihydropyridine; details: 10 μM; rat
[19] = biological target: Histamine, H1 (Homo sapiens, UniProt P35367); details: for % Inhibition: 10 μM
[20] = biological target: Prostanoid EP4 (Homo sapiens, UniProt P35408); details: for % Inhibition: 10 μM
[21] = biological target: Dopamine D2s (Homo sapiens, UniProt P14416); details: for % Inhibition: 10 μM
[22] = biological target: Muscarinic M3 (Homo sapiens, UniProt P20309); details: for % Inhibition: 10 μM
[23] = biological target: Nicotinic Acetylcholine a1, Bungarotoxin (Homo sapiens, UniProt P02708+P07510+Q07001); details: for % Inhibition: 10 μM, human
[24] = biological target: Sigma σ1 (Homo sapiens, UniProt Q99720); details: for % Inhibition: 10 μM
[25] = biological target: Seritonin (5-Hydroxytryptamine) 5-HT2B (Homo sapiens, UniProt P41595); details: for % Inhibition: 10 μM
[26] = biological target: Adenosine A2A (Homo sapiens, UniProt P29274); details: for % Inhibition: 10 μM
[27] = biological target: Transporter, Norepinephrine (NET) (Homo sapiens, UniProt P23975); details: for % Inhibition: 10 μM

Chain of Seritonin (5-Hydroxytryptamine) 5-HT2B (P41595 whole entry): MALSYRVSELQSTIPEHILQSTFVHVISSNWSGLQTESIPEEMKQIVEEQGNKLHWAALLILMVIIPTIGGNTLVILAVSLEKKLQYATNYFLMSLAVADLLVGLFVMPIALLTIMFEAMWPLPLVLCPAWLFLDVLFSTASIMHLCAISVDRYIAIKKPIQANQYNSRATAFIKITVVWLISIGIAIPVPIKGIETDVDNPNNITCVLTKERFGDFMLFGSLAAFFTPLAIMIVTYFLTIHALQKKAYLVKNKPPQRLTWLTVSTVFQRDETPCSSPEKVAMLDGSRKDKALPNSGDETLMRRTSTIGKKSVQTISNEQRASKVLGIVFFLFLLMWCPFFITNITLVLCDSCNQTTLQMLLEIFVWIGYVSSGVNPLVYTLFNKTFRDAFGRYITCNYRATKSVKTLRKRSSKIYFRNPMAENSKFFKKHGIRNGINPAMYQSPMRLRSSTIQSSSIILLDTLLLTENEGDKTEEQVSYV
Chain of Cannabinoid CB1 (P21554 whole entry): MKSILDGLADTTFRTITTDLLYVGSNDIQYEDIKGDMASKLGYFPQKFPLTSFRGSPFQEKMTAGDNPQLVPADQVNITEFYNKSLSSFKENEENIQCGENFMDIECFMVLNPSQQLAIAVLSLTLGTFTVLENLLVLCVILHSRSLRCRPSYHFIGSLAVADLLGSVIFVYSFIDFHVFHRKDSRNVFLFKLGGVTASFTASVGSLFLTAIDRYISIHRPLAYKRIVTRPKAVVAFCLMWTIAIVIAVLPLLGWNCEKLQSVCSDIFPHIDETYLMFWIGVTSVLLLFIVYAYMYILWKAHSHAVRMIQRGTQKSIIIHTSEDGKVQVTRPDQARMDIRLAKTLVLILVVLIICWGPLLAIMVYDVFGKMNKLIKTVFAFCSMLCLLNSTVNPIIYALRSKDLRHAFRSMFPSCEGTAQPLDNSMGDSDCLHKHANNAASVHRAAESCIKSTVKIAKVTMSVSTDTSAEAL
Chain of Opiate μ(OP3, MOP) (P35372 whole entry): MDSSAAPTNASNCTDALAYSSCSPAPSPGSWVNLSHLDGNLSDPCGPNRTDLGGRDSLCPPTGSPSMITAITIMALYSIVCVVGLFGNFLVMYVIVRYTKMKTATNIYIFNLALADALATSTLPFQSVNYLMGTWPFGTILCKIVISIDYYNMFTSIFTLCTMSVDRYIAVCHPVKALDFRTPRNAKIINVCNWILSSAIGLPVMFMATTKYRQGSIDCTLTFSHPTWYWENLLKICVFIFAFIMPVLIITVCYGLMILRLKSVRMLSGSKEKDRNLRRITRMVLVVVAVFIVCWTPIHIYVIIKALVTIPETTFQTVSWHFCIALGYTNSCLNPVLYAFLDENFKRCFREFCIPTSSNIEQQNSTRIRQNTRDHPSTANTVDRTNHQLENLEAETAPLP
Chain of Potassium Channel (KATP) (Q09427 whole entry): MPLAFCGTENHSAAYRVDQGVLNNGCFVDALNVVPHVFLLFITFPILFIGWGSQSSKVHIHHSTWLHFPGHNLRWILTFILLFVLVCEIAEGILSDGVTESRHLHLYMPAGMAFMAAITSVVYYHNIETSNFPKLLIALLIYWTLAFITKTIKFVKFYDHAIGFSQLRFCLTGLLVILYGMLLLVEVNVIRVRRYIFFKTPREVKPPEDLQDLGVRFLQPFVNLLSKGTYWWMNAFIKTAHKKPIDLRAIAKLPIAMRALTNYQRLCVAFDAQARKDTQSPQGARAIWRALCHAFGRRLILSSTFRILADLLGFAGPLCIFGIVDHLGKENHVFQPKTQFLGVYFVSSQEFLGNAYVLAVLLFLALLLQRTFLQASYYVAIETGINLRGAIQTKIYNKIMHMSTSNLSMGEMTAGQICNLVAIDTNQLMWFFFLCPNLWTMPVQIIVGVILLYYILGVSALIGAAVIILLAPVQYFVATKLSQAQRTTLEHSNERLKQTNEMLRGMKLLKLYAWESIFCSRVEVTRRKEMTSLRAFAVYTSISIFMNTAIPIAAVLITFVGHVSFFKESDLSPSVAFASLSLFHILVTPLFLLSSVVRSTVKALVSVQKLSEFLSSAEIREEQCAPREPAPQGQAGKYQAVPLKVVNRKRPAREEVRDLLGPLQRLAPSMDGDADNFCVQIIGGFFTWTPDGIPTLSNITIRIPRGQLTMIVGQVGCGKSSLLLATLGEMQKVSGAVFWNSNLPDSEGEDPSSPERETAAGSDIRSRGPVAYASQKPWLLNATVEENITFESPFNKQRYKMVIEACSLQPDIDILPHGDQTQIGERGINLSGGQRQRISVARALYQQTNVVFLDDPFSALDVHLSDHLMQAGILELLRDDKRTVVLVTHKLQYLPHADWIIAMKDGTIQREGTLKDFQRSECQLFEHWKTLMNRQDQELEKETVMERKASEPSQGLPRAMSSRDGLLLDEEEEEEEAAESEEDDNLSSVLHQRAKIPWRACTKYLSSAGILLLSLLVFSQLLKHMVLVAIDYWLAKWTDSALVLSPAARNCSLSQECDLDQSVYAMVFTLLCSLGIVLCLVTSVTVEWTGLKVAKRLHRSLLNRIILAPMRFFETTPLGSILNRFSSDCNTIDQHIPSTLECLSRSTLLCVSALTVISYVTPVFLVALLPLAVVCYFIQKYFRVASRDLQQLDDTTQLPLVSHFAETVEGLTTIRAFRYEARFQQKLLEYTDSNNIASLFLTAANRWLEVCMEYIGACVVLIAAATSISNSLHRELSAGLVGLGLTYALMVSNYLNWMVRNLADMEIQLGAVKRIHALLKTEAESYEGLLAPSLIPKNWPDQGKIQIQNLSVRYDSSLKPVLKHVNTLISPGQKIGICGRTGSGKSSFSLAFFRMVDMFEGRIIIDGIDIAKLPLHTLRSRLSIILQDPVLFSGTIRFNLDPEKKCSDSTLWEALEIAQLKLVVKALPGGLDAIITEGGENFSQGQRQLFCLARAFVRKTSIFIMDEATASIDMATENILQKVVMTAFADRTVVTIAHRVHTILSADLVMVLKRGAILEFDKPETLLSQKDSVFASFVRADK
Chain of Adrenergic β2 (P07550 whole entry): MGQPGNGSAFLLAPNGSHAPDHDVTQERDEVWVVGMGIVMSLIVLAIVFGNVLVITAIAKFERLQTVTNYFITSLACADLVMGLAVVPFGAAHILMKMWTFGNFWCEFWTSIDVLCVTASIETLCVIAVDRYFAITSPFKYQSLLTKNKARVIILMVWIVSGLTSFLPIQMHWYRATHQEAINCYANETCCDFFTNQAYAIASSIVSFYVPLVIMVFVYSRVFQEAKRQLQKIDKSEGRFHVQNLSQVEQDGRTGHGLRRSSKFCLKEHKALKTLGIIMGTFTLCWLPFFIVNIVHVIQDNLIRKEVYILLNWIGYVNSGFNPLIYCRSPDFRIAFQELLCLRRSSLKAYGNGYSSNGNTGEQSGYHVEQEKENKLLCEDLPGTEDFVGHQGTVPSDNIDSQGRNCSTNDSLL
Chain of Sigma σ1 (Q99720 whole entry): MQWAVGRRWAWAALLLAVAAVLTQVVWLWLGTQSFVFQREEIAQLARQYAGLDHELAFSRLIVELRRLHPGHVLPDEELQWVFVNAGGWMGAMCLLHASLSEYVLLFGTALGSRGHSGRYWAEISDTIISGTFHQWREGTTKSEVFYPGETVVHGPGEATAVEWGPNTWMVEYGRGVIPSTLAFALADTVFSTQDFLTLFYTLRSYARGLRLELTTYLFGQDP
Chain of Dopamine D2s (P14416 1-414 isoform P14416-2): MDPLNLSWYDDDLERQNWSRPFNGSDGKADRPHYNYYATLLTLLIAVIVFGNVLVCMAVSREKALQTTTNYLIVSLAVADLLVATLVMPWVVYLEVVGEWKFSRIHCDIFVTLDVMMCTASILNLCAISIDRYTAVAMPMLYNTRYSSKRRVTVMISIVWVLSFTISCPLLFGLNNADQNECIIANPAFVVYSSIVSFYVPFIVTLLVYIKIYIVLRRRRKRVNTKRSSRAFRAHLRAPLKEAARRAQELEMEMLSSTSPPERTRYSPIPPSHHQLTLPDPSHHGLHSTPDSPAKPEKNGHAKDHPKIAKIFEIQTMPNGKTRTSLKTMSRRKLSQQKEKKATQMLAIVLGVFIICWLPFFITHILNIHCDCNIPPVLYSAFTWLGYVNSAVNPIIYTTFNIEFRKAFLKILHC
Chain of Prostanoid EP4 (P35408 whole entry): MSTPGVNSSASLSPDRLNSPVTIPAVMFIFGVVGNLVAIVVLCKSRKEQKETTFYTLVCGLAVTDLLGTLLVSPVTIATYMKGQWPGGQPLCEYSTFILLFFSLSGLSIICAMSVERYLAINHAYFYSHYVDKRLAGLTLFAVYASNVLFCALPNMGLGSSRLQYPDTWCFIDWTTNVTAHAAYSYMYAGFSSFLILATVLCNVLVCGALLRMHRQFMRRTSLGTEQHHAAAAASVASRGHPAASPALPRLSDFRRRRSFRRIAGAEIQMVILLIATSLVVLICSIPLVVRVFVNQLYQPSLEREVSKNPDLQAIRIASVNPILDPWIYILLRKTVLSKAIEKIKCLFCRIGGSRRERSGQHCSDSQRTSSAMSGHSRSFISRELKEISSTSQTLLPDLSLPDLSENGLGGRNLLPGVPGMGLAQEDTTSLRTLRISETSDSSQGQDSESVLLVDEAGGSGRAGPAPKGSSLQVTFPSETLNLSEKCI
Chain of Adrenergic β1 (P08588 whole entry): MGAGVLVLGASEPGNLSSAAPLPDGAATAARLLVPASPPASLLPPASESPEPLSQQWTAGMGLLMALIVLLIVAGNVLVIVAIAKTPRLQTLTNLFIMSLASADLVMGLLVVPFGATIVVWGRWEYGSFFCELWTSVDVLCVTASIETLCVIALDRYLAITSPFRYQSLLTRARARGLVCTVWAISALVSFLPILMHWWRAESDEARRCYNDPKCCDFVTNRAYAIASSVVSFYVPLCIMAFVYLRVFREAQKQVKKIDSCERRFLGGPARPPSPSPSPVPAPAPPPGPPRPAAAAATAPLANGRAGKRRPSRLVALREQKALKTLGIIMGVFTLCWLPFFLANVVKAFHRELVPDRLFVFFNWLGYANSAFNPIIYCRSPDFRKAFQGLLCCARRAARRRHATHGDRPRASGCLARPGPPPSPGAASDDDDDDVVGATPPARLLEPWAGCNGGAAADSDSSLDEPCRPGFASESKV

Row | Structure (SMILES) | % Inhibition [1] [%] | % Inhibition [2] [%] | % Inhibition [3] [%] | % Inhibition [4] [%] | % Inhibition [5] [%] | % Inhibition [6] [%] | % Inhibition [7] [%] | % Inhibition [8] [%] | % Inhibition [9] [%] | % Inhibition [10] [%] | % Inhibition [11] [%] | % Inhibition [12] [%] | % Inhibition [13] [%] | % Inhibition [14] [%] | % Inhibition [15] [%] | % Inhibition [16] [%] | % Inhibition [17] [%] | % Inhibition [18] [%] | % Inhibition [19] [%] | % Inhibition [20] [%] | also measured
1 | O=C(Nc1nnc(-c2ccc(F)cc2)o1)N1CCc2ccccc2C1 [MBX-4132] | −10 | 2 | 48 | 24 | 4 | 4 | 14 | 1 | 36 | 74 | −3 | −8 | 10 | 54 | 13 | −8 | 33 | 15 | 17 | 18 | % Inhibition [21]: 25%; % Inhibition [22]: 16%; % Inhibition [23]: 0%; % Inhibition [24]: −4%; % Inhibition [25]: 53%; % Inhibition [26]: 43%; % Inhibition [27]: 50%
2 | O=C(Nc1nnc(-c2ccc(F)cc2)o1)c1ccc(Oc2ccccc2)nc1 [MBX-4237] | – | 1 | – | – | −3 | 2 | – | −6 | – | – | 9 | – | – | – | 25 | 8 | 14 | 2 | – | – | inhibition at 10 µM [1]: -9%; inhibition at 10 µM [3]: 10%; inhibition at 10 µM [4]: 6%; inhibition at 10 µM [7]: 7%; inhibition at 10 µM [9]: 15%; inhibition at 10 µM [10]: 12%; inhibition at 10 µM [12]: 7%; inhibition at 10 µM [13]: 9%; inhibition at 10 µM [14]: -8%; inhibition at 10 µM [19]: 6%; inhibition at 10 µM [20]: -22%; inhibition at 10 µM [21]: -3%; inhibition at 10 µM [22]: 11%; inhibition at 10 µM [23]: -8%; inhibition at 10 µM [24]: 32%; inhibition at 10 µM [25]: -4%; inhibition at 10 µM [26]: 6%; inhibition at 10 µM [27]: 45%
3 | O=C(Nc1nnc(-c2ccc(F)cc2)o1)c1ccc(OC2CCCCC2)cc1 [MBX-4292] | 3 | −8 | 8 | 9 | −2 | 2 | 11 | −4 | 6 | 4 | 0 | 17 | 8 | 3 | −1 | 1 | 10 | 23 | −8 | 28 | % Inhibition [21]: 1%; % Inhibition [22]: 0%; % Inhibition [23]: −4%; % Inhibition [24]: 10%; % Inhibition [25]: −7%; % Inhibition [26]: 11%; % Inhibition [27]: 77%
4 | O=C(Nc1nnc(-c2ccc(F)cc2)o1)N1CC=C(C(F)(F)F)CC1 [MBX-4347] | 3 | −6 | −4 | −21 | −5 | 7 | 0 | 4 | 8 | −14 | 5 | 5 | 2 | 9 | 22 | −4 | −5 | 16 | 22 | −4 | % Inhibition [21]: −2%; % Inhibition [22]: 2%; % Inhibition [23]: 2%; % Inhibition [24]: −2%; % Inhibition [25]: −1%; % Inhibition [26]: 3%; % Inhibition [27]: 32%

Reference: patent US11505533B2, “Metabolically stable N-acylaminooxadiazoles useful as antibacterial agents” (MICROBIOTIX, INC., priority 2017, dated 2022)
